Data on 22 compounds can be found in patent US10188106B2 (priority 2008, dated 2019).

Common to all, as to assay type: in vivo
The test system of one test is Alternaria solani. Briefly: Alternaria test (tomatoes)/protective. The conditions noted are these: tomato plants, protective spray, evaluated 3 days after inoculation; for pest or weed control at 50 ppm: rate of application 50 ppm; for pest or weed control at 25 ppm: rate of application 25 ppm. Here is the method: (§1) Solvent: 24.5 parts by weight of acetone
(§2) • 24.5 parts by weight of dimethylacetamide Emulsifier: 1 part by weight of alkylaryl polyglycol ether
(§3) To produce a suitable preparation of active compound, 1 part by weight of active compound is mixed with the stated amounts of solvent and emulsifier, and the concentrate is diluted with water to the desired concentration.
To test for protective activity, young plants are sprayed with the preparation of active compound at the stated rate of application. After the spray coating has dried on, the plants are inoculated with an aqueous spore suspension of Alternaria solani. The plants are then placed in an incubation cabinet at approximately 20° C. and a relative atmospheric humidity of 100%.
The test is evaluated 3 days after the inoculation. 0% means an efficacy which corresponds to that of the control while an efficacy of 100% means that no disease is observed.

The subject of another test is Botrytis cinerea. Briefly: Botrytis test (beans)/protective. The conditions noted are these: bean plants, protective spray, lesion size 2 days after inoculation. Here is the method:
as §1, §2, §3
To test for protective activity, young plants are sprayed with the preparation of active compound. After the spray coating has dried on, 2 small pieces of agar covered with growth of Botrytis cinerea are placed on each leaf. The inoculated plants are placed in a darkened chamber at 20° C. and a relative atmospheric humidity of 100%.
2 days after the inoculation, the size of the lesions on the leaves is evaluated. 0% means an efficacy which corresponds to that of the control, while an efficacy of 100% means that no disease is observed.

In the next test the test system is Phytophthora infestans. The conditions noted are these: tomato plants, protective spray, evaluated 3 days after inoculation.
Another test relates to Venturia inaequalis. The test is described as follows: Venturia test (apples)/protective. The conditions noted are these: apple plants, protective spray, rate of application 100 ppm, evaluated 10 days after inoculation. Here is the method: as §1, §2, §3
To test for protective activity, young plants are sprayed with the preparation of active compound at the stated rate of application. After the spray coating has dried on, the plants are inoculated with an aqueous conidia suspension of the causal agent of apple scab (Venturia inaequalis) and then remain for 1 day in an incubation cabinet at approximately 20° C. and a relative atmospheric humidity of 100%.
The plants are then placed in a greenhouse at approximately 21° C. and a relative atmospheric humidity of approximately 90%.
The test is evaluated 10 days after the inoculation. 0% means an efficacy which corresponds to that of the control, while an efficacy of 100% means that no disease is observed.

Setting [1] is: Alternaria solani, 72 h, read-out: Efficacy in %.
Where [2] appears, read: Alternaria solani, 72 h, rate of application 10 ppm, read-out: Efficacy in %.

Where a name gives a salt, the structure may show the parent alone. Read-outs that look alike come from different tables or passages of the source.

For `Cc1nn(C)c(F)c1C(=O)Nc1ccccc1C(C)CC(C)C` (stereo not drawn) [N-[2-(1,3-dimethylbutyl)phenyl]-5-fluoro-1,3-dimethyl-1H-pyrazole-4-carboxamide], the pest or weed control at 1 ppm in the test with Alternaria solani (Alternaria solani, 72 h, rate of application 1 ppm, read-out: Efficacy in %) came out at 18%.
`CO/C=C(/C(=O)OC)c1ccccc1Oc1cc(Oc2ccccc2C#N)ncn1` [azoxystrobin] displayed an Efficacy in % in the test with Alternaria solani (rate of application 10 ppm) of 15%.
Consider `Cn1cc(C(=O)Nc2ccc(F)cc2-c2ccc(Cl)c(Cl)c2)c(C(F)F)n1` [bixafen, N-(3′,4′-dichloro-5-fluorobiphenyl-2-yl)-3-(difluoromethyl)-1-methyl-1H-pyrazole-4-carboxamide], for which, in the test on Alternaria solani (Alternaria solani, 72 h, rate of application 1.25 ppm, read-out: Efficacy in %), the pest or weed control at 1.25 ppm was 65%.
Take `O=C(Nc1ccccc1-c1ccc(Cl)cc1)c1cccnc1Cl` [boscalid]: the Efficacy in % with Botrytis cinerea (rate of application 5 ppm) is recorded as 21%.
As to `N#Cc1c(Cl)c(Cl)c(Cl)c(C#N)c1Cl` [chlorothalonil], the Efficacy in % with Phytophthora infestans (rate of application 25 ppm) was 44%. The pest or weed control at 50 ppm in the test with Alternaria solani (setting [1]) turned out to be 71%.
`CN/C(=N\[N+](=O)[O-])NCc1cnc(Cl)s1` [clothianidin] displayed an Efficacy in % with Venturia inaequalis of 66%.
Take `CCNC(=O)NC(=O)/C(C#N)=N/OC` [cymoxanil]: the Efficacy in % with Venturia inaequalis was found to be 23%. In addition, the pest or weed control at 50 ppm with Alternaria solani (setting [1]) turned out to be 23%.
In the test on Botrytis cinerea (rate of application 10 ppm), `O=[N+]([O-])c1cc(C(F)(F)F)c(Cl)c([N+](=O)[O-])c1Nc1ncc(C(F)(F)F)cc1Cl` [fluazinam] showed an Efficacy in % of 79%.
As for `N#Cc1c[nH]cc1-c1cccc2c1OC(F)(F)O2` [fludioxonil], the Efficacy in % in the test with Botrytis cinerea (rate of application 5 ppm) is 45%.
Turning to `CO/N=C(/C1=NOCCO1)c1ccccc1Oc1ncnc(Oc2ccccc2Cl)c1F` [fluoxastrobin], the pest or weed control at 10 ppm with Alternaria solani (setting [2]) was 15%.
With `CCCCCOC(=O)Nc1cccc(CON=C(c2ccccc2)c2nnnn2C)n1` [formula 1, pentyl {6-[({[(1-methyl-1H-tetrazol-5-yl)(phenyl)methylidene]amino}oxy)methyl]pyridin-2-yl}carbamate], the Efficacy in % in the test on Venturia inaequalis stood at 8%; with Phytophthora infestans (rate of application 0.25 ppm) it was 47%; in the test on Phytophthora infestans (rate of application 0.5 ppm) it was 57%; with Phytophthora infestans (rate of application 1 ppm), 77%; in the test on Botrytis cinerea (rate of application 50 ppm) it was 4%; in the test with Botrytis cinerea (rate of application 100 ppm), 4%. The pest or weed control at 5 ppm in the test with Alternaria solani (Alternaria solani, 72 h, rate of application 5 ppm, read-out: Efficacy in %) came out at 0%. Also, in the test with Alternaria solani (setting [2]), the pest or weed control at 10 ppm was found to be 0%. The pest or weed control at 25 ppm in the test on Alternaria solani (setting [1]) turned out to be 0%. Moreover, the pest or weed control at 50 ppm with Alternaria solani (setting [1]) was found to be 8%. Further, the pest or weed control at 100 ppm in the test on Alternaria solani (Alternaria solani, 72 h, rate of application 100 ppm, read-out: Efficacy in %) was found to be 0%.
As to `CCO[PH](=O)O` [fosetyl-Al], the Efficacy in % in the test with Phytophthora infestans (rate of application 10 ppm) turned out to be 0%.
As to `O=[N+]([O-])NC1=NCCN1Cc1ccc(Cl)nc1` [imidacloprid], in the test with Venturia inaequalis, the Efficacy in % was 4%. In addition, the pest or weed control at 25 ppm in the test on Alternaria solani (setting [1]) came to 0%.
`CC(C)NC(=O)N1CC(=O)N(c2cc(Cl)cc(Cl)c2)C1=O` [iprodione] registered an Efficacy in % in the test with Botrytis cinerea (rate of application 100 ppm) of 66%.
Regarding `Cc1ccc(C(C)NC(=O)[C@@H](NC(=O)OC(C)C)C(C)C)cc1` (stereo partly drawn) [iprovalicarb], the Efficacy in % in the test on Phytophthora infestans (rate of application 1 ppm) is 16%.
In turn, `CCCOC(=O)NCCCN(C)C` [propamocarb-HCl] yielded an Efficacy in % with Venturia inaequalis of 4%. Besides, the pest or weed control at 50 ppm in the test with Alternaria solani (setting [1]) is 38%.
As for `OC(Cc1ccccc1Cl)(Cn1nc[nH]c1=S)C1(Cl)CC1` (stereo not drawn) [prothioconazole], the pest or weed control at 2.5 ppm in the test with Alternaria solani (Alternaria solani, 72 h, rate of application 2.5 ppm, read-out: Efficacy in %) stood at 23%.
Regarding `COC(=O)N(OC)c1ccccc1COc1ccn(-c2ccc(Cl)cc2)n1` [pyraclostrobin], the pest or weed control at 10 ppm in the test on Alternaria solani (setting [2]) turned out to be 45%.
Still for that read-out and setting: the result for `CC(C)(C)C(O)(CCc1ccc(Cl)cc1)Cn1cncn1` (stereo not drawn) [tebuconazole] reads 55%; that for `CON=C(C(=O)OC)c1ccccc1CON=C(C)c1cccc(C(F)(F)F)c1` [trifloxystrobin], 35%.
In the test with Phytophthora infestans (rate of application 10 ppm), mancozeb returned an Efficacy in % of 0%.
The same measure, in the same setting: for propineb [Ppopineb] the value was 0%.
